The record followed here is ChEMBL document CHEMBL1128169, “Thiourea analogues of resiniferatoxin as ligands for the vanilloid receptor” (Bioorg Med Chem Lett, 1995).

pKi: −log10 of the molar value.

Transient receptor potential cation channel subfamily V member 1, sequence (Q8NER1 whole entry): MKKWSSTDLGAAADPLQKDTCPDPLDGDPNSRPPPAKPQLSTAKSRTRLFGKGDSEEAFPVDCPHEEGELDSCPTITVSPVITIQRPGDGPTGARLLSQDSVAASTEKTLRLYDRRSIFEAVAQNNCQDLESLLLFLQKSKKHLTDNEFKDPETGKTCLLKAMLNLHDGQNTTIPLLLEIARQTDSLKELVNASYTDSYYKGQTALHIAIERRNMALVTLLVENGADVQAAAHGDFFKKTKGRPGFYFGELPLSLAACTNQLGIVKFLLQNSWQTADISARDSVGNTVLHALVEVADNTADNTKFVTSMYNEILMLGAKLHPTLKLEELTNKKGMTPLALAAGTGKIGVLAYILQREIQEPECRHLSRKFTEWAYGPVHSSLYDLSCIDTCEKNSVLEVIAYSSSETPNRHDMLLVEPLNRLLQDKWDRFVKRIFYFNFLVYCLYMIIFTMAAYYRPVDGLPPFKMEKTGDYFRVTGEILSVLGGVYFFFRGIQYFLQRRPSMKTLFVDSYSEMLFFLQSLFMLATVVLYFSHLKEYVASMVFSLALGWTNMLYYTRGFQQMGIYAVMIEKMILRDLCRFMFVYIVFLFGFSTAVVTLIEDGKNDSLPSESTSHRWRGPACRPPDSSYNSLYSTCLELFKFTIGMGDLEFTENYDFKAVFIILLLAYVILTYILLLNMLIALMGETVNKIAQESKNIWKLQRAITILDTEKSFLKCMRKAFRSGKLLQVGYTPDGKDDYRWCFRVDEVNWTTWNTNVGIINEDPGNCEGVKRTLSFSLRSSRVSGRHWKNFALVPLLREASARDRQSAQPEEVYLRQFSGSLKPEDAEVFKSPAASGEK

The test concerns the target Transient receptor potential cation channel subfamily V member 1 (Homo sapiens, UniProt Q8NER1). Kind of test: Displacement of [3H]RTX binding from vanilloid receptor. (In general: Displacement assays read how much labelled ligand stays bound in the presence of the test substance.)
For the compound `C=C(C)[C@]12C[C@@H](C)[C@@]34O[C@](Cc5ccccc5)(O[C@@H]1[C@@H]3C=C(COC(=O)Cc1ccc(O)c(OC)c1)C[C@]1(O)C(=O)C(C)=CC41)O2` (single isomer, unassigned) [RESINIFERATOXIN], the pKi was 7.64. `C=C(C)[C@]12C[C@@H](C)[C@@]34OC(Cc5ccccc5)(O[C@@H]1[C@@H]3C=C(CNC(=S)NCc1ccc(O)c(OC)c1)C[C@]1(O)C(=O)C(C)=C[C@@H]41)O2` gave a pKi of 6.83.

In the case of `C=C(C)[C@]12C[C@@H](C)[C@@]34OC(Cc5ccccc5)(O[C@@H]1[C@@H]3C=C(C/N=C(\S)Nc1ccc(O)c(OC)c1)C[C@]1(O)C(=O)C(C)=C[C@@H]41)O2`, the pKi was 7.18.

For orientation: pKi means the Ki on a negative log10 scale, so that one unit is a factor of ten. Higher therefore signals a small Ki.
